Measurements from PMC8359193, “Summary of reference chemicals evaluated by the fish short‐term reproduction assay, OECD TG229, using Japanese Medaka, Oryzias latipes” (Journal of Applied Toxicology, 2021).

Tests used:
[1] = biological target: medaka ARβ (mARβ) (Oryzias latipes, UniProt D1MV73); experiment: Medaka ARβ reporter gene assay (RGA), agonist assay, HepG2 cells; type: cell-based, Japanese medaka (Oryzias latipes)
Method: To support interpretation of the biological effects observed in the FSTRA studies, in vitro RGAs using medaka Esr1 (mEsr1) and medaka ARβ (mARβ) were performed for the 16 test chemicals.
For the assays, human liver cancer cell line, HepG2, was used as the host cells, and mARβ/pcDNA3.1, MMTV‐Luc, and pRL‐TK‐Rlu were used as mARβ expression vector, reporter vector, and internal control vector, respectively.
Effect concentrations, that is, EC50 (a half maximal effective concentration) in the agonist assay and IC50 (a half maximal inhibitory concentration) in the antagonist assay, were estimated by nonlinear curve fitting (e.g., three parameters logistic regression curve) using GraphPad Prism (GraphPad Software Inc., La Jolla, CA, USA).

[2] = system: Japanese medaka (Oryzias latipes); experiment: Fish short-term reproduction assay (FSTRA, OECD TG229), 21-day flow-through exposure; conditions: for Fertility rate (%) / Mortality (%) Female / Mortality (%) Male / Number of fertilized eggs / Number of total eggs / SSC Female / SSC Male / VTG (ng/mg of liver) Female / VTG (ng/mg of liver) Male: 21 days
Method in brief: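 Japanese medaka (NIES-R strain, 16 ± 2 weeks old) were exposed in flow-through tanks for 3 weeks, three males and three females per tank, four replicate tanks per group, with a dilution water control. Concentrations were spaced by a factor of 2–5. Eggs were collected daily and counted as fertilized or unfertilized.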

[3] = measured conc. 11 μg/L, at completion of exposure
[4] = measured conc. 24 μg/L, at completion of exposure
[5] = measured conc. 64 μg/L, at completion of exposure
[6] = measured conc. 243 μg/L, at completion of exposure

Sequence of medaka ARβ (mARβ) (D1MV73 entry or part of it): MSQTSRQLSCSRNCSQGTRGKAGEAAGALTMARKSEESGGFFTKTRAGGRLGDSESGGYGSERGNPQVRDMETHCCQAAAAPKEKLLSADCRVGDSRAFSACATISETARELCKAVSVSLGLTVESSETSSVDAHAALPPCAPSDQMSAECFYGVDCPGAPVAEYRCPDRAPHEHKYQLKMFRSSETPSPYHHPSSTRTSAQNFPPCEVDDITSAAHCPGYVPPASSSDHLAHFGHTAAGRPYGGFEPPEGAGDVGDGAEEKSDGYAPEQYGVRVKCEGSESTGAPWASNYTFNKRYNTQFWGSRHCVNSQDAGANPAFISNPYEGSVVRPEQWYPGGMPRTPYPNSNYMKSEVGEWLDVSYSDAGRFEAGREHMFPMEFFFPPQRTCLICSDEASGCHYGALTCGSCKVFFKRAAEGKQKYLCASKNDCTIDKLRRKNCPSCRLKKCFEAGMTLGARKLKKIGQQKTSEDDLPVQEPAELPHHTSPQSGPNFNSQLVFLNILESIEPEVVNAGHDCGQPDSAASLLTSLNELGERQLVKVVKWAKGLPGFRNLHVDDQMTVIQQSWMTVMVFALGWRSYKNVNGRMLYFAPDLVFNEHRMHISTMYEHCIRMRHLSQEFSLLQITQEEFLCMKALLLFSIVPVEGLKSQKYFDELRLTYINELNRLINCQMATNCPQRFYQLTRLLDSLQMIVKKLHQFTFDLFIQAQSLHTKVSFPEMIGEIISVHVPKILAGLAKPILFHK

For `CC(=O)[C@H]1CC[C@H]2[C@@H]3CCC4=CC(=O)CC[C@]4(C)[C@H]3CC[C@]12C` [P4, Progesterone], the “mARβ agonist activity (in words)” value [1] was “potent AR agonists”, the “effect on female hepatic VTG, in words” value ([2]; 21-day exposure) was “no alteration” and the “LOEC on female SSC (papillary process formation on anal fin)” value ([2]; 21-day exposure, measured conc.) was 11 µg/L. For the same molecule, the “GSI Female” value ([2]; female, measured conc. 243 μg/L, at completion of exposure) was 36.9%, the “GSI Male” value [2, 3] was 1.20% and the “HSI Male” value [2, 3] was 2.0%. The “Length Male” value [2, 3] was 36.9 mm, the “Weight Male” value [2, 3] was 501 mg and the “GSI Male” value [2, 4] was 1.04%. For the same molecule, the “HSI Male” value [2, 4] was 1.9%, the “Length Male” value [2, 4] was 36.4 mm and the “Weight Male” value [2, 4] was 475 mg. The “GSI Male” value [2, 5] was 1.14%, the “HSI Male” value [2, 5] was 2.8% and the “Length Male” value [2, 5] was 37.1 mm. For the same molecule, the “Weight Male” value [2, 5] was 465 mg, the “GSI Male” value [2, 6] was 1.15% and the “HSI Male” value [2, 6] was 2.1%. The “Length Male” value [2, 6] was 36.9 mm, the “Weight Male” value [2, 6] was 479 mg and the “Fertility rate (%)” value ([2]; measured conc. 11 μg/L) was 92%. The “Mortality (%) Female” value ([2]; measured conc. 11 μg/L) was 0%, the “Mortality (%) Male” value ([2]; measured conc. 11 μg/L) was 0% and the “Number of fertilized eggs” value ([2]; measured conc. 11 μg/L) was 17. The “Number of total eggs” value ([2]; measured conc. 11 μg/L) was 18 ± 3.8 /female/day, the “SSC Female” value ([2]; measured conc. 11 μg/L) was 11 ± 8.9 and the “SSC Male” value ([2]; measured conc. 11 μg/L) was 109 ± 14. For the same molecule, the “VTG (ng/mg of liver) Female” value ([2]; measured conc. 11 μg/L) was 746 ± 419 ng/mg of liver, the “VTG (ng/mg of liver) Male” value ([2]; measured conc. 11 μg/L) was 33 ± 29 ng/mg of liver and the “Fertility rate (%)” value ([2]; measured conc. 24 μg/L) was 91%. For the same molecule, the “Mortality (%) Female” value ([2]; measured conc. 24 μg/L) was 8%, the “Mortality (%) Male” value ([2]; measured conc. 24 μg/L) was 0% and the “Number of fertilized eggs” value ([2]; measured conc. 24 μg/L) was 16. The “Number of total eggs” value ([2]; measured conc. 24 μg/L) was 17 ± 4.0 /female/day, the “SSC Female” value ([2]; measured conc. 24 μg/L) was 21 ± 5.9 and the “SSC Male” value ([2]; measured conc. 24 μg/L) was 108 ± 20. The “VTG (ng/mg of liver) Female” value ([2]; measured conc. 24 μg/L) was 818 ± 270 ng/mg of liver, the “VTG (ng/mg of liver) Male” value ([2]; measured conc. 24 μg/L) was 29 ± 22 ng/mg of liver and the “Fertility rate (%)” value ([2]; measured conc. 64 μg/L) was 87%. For the same molecule, the “Mortality (%) Female” value ([2]; measured conc. 64 μg/L) was 8%, the “Mortality (%) Male” value ([2]; measured conc. 64 μg/L) was 0% and the “Number of fertilized eggs” value ([2]; measured conc. 64 μg/L) was 15. The “Number of total eggs” value ([2]; measured conc. 64 μg/L) was 16 ± 6.5 /female/day, the “SSC Female” value ([2]; measured conc. 64 μg/L) was 35 ± 8.9 and the “SSC Male” value ([2]; measured conc. 64 μg/L) was 101 ± 13. The “VTG (ng/mg of liver) Female” value ([2]; measured conc. 64 μg/L) was 1,008 ± 445 ng/mg of liver, the “VTG (ng/mg of liver) Male” value ([2]; measured conc. 64 μg/L) was 37 ± 27 ng/mg of liver and the “Fertility rate (%)” value ([2]; measured conc. 243 μg/L) was 2.9%. For the same molecule, the “Mortality (%) Female” value ([2]; measured conc. 243 μg/L) was 83%, the “Mortality (%) Male” value ([2]; measured conc. 243 μg/L) was 50% and the “Number of fertilized eggs” value ([2]; measured conc. 243 μg/L) was 0.2. The “Number of total eggs” value ([2]; measured conc. 243 μg/L) was 1.0 ± 2.3 /female/day, the “SSC Female” value ([2]; measured conc. 243 μg/L) was 32 ± 21 and the “SSC Male” value ([2]; measured conc. 243 μg/L) was 100 ± 10. For the same molecule, the “VTG (ng/mg of liver) Female” value ([2]; measured conc. 243 μg/L) was 899 ± 139 ng/mg of liver, the “VTG (ng/mg of liver) Male” value ([2]; measured conc. 243 μg/L) was 37 ± 36 ng/mg of liver and the “effect on fecundity (number of total eggs), in words” value ([2]; within the test concentrations, 21-day exposure) was “significant difference from the control”.
